Results from US20090156404A1, “Methods and Compositions for Reducing Stress in Plants” (CROP MICROCLIMATE MANAGEMENT, INC., priority 2007, published 2009).

How the values were obtained:
Format in all cases: in vivo, tomato
tomatoes (var. Marglobe) [1] = assay: Freeze event, greenhouse grown tomatoes sprayed with composition (Example 1); settings: exposures to −3.3° C
From the text: Unadapted plants in trays were sprayed with a composition comprised of a particulate material and a plant growth regulating compound mixed with water. The composition was applied using a backpack sprayer in a factorial trial design. The particulate material used was kaolin, applied at 25 and 50 kg/ha. […] Two plant growth regulating compounds, methyl salicylate and sodium salicylate, were each mixed individually with the kaolin. In addition to combinations of kaolin and each of the plant growth regulating compounds, the experiment included applying kaolin alone and each of the plant growth regulating compounds alone, each mixed with water. The concentrations of each of the plant growth regulating compounds in the composition were 1×10^−4M and 1×10^−5M.

tomatoes (var. Marglobe) [2] = assay: Growth chamber induced temperature/light stress in tomatoes (Example 2); settings: for Chlorosis (%): after five days, 4 to 42° C
Description: In this example, a growth chamber was used to induce stress in plants. Tomatoes (var. Marglobe) were greenhouse grown, then adapted in the growth chamber for two days at a constant 20° C. and the highest light intensity produced by the growth chamber. The temperature was then programmed for a multi-step diurnal variation between about 4 and about 42° C. The plants were treated with a composition comprised of a particulate material and a plant growth regulating compound mixed with water. The particulate material used was Kaolin, applied at 25 and 50 kg/ha. […] The plant growth regulating compound was sodium salicylate, which was applied at 1×10^−4M and 1×10^−5M in the composition. In addition to combinations of kaolin and the plant growth regulating compound, the experiment included applying kaolin alone and the plant growth regulating compound alone, each mixed with water.

[3] = tested on: Field-grown tomatoes (var. Better Boy); assay: Field trial without irrigation, weekly treatments (Example 3)
From the text: Treatment consisted of a composition comprised of a particulate material and a plant growth regulating compound mixed with water. The particulate material was kaolin, applied at 25 and 50 kg/ha. […] The plant growth regulating compound was sodium salicylate, which was applied at a concentration of 1×10^−5M in the composition. In addition to combinations of kaolin and the plant growth regulating compound, the experiment included applying kaolin alone and the plant growth regulating compound alone, each mixed with water. The trial was conducted in a grower field of sandy soil in Wake County, N.C. under grower conditions. The conditions were considered to be severe, as there was no irrigation and rainfall was insufficient during the trial. Treatments were applied at weekly intervals. The trial was a randomized complete block design with three replications.

[4] = tested on: early season tomatoes (var. Mountain Spring); assay: Irrigated field trial, flower abortion (Example 4); settings: 1 × 10^−5M
From the text: In addition to combinations of kaolin and the plant growth regulating compound, the experiment included applying kaolin alone and the plant growth regulating compound alone, each mixed with water.

Potted tomatoes = assay: Chill stress of potted tomatoes under field conditions (Example 5); settings: particulate 0 kg/ha, rating 10 completely healthy, 0 dead
From the text: Potted tomatoes under field conditions were subjected to cold temperatures in Australia in September-October 2007. […] The plants were sprayed with a composition comprised of particulate material and a plant growth regulating compound mixed with water. The particulate material used was kaolin, applied at 25 and 50 kg/ha. […] Two plant growth regulating compounds, sodium salicylate and benzyl acetate, were each mixed individually with the kaolin. The concentration of each plant growth regulating compound in the composition was 1×10^−5M. In addition to combinations of kaolin and each of the plant growth regulating compounds, the experiment included applying kaolin alone and sodium salicylate alone each mixed with water. The vigor and health of the plants were evaluated during the period of the trial.

SMILES: COC(=O)c1ccccc1O [Me Salicylate, methyl salicylate]
- Mortality (%) (tomatoes (var. Marglobe) [1]; 1 × 10^−4M): 0%
- Mortality (%) (tomatoes (var. Marglobe) [1]; 1 × 10^−5M): 20%

SMILES: O=C([O-])c1ccccc1O.[Na+] [Na Salicylate, sodium salicylate]
- Growth (cm) (tomatoes (var. Marglobe) [2]; 1 × 10^−4M): 1.9 cm
- Chlorosis (%) (tomatoes (var. Marglobe) [2]; 1 × 10^−4M): 7.5%
- Growth (cm) (tomatoes (var. Marglobe) [2]; 1 × 10^−5M): 1.9 cm
- Chlorosis (%) (tomatoes (var. Marglobe) [2]; 1 × 10^−5M): 8.8%
- # flower clusters/plant ([3]; Rating 1, 1 × 10^−5M): 2.61
- # Fruit > 2 cm ([3]; Rating 2, 1 × 10^−5M): 1.05
- # flower clusters/plant ([3]; Rating 2, 1 × 10^−5M): 3.78
- # Mature blossoms ([3]; Rating 3, 1 × 10^−5M): 2.89
- # clusters/plant ([3]; Rating 3, 1 × 10^−5M): 0.75
- Fruit > 1 cm ([3]; Rating 3, 1 × 10^−5M): 1.46
- stress protection (in words) ([3]; plant growth, flowering, fruit clusters per plant, no irrigation): values intermediate between the untreated plants and the plants treated with both
- Mortality (%) (tomatoes (var. Marglobe) [1]; 1 × 10^−4M): 83%
- Mortality (%) (tomatoes (var. Marglobe) [1]; 1 × 10^−5M): 6.3%
- # Aborted Flowers/Plant ([4]; Rating 1): 20.75
- # Aborted Flowers/Plant ([4]; Rating 2): 3.94
- Plant Vigor/Health (Potted tomatoes; 7/10/2007, growth compound 0.8 g/ha): 7.7 a
- Plant Vigor/Health (Potted tomatoes; 7/10/2007, growth compound 1.6 g/ha): 7.3 a
- Plant Vigor/Health (Potted tomatoes; 12/9/2007, growth compound 0.8 g/ha): 10 a
- Plant Vigor/Health (Potted tomatoes; 12/9/2007, growth compound 1.6 g/ha): 10 a
- Plant Vigor/Health (Potted tomatoes; 26/09/2007, growth compound 0.8 g/ha): 6.5 ab
- Plant Vigor/Health (Potted tomatoes; 26/09/2007, growth compound 1.6 g/ha): 6.5 ab
